# Tests used:
# Assay in all cases: relative viability (nuclei count vs DMSO), 5 days (fraction); higher = more cells survive
# [1] = compound: Cn1cnc2c(F)c(Nc3ccc(Br)cc3Cl)c(C(=O)NOCCO)cc21 [Selumetinib] + CC1(C)CCC(c2ccc(Cl)cc2)=C(CN2CCN(c3ccc(C(=O)NS(=O)(=O)c4ccc(N[C@H](CCN5CCOCC5)CSc5ccccc5)c(S(=O)(=O)C(F)(F)F)c4)cc3)CC2)C1 [Navitoclax] (partner 0.5 µM)
# Procedure, shortened: (§1)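 The day after seeding in 1536-well plates, lung cancer cell lines were treated by pin tool with a single drug, or with a fixed anchor-drug dose together with five library-drug doses (not always all listed) in √10 steps. After 5 days, a combined fix-and-stain solution (final 0.05% Triton X-100, 1% formaldehyde, 1 ug/ml Hoechst) was added. Nuclei counted on 4× images gave relative viability as treated counts over vehicle counts, reported as the median of duplicate plates.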
# [2] = compound: CC1(C)CCC(CN2CCN(c3ccc(C(=O)NS(=O)(=O)c4ccc(NCC5CCOCC5)c([N+](=O)[O-])c4)c(Oc4cnc5[nH]ccc5c4)c3)CC2)=C(c2ccc(Cl)cc2)C1 [Venetoclax] + Nc1ncn([C@H]2C[C@H](O)[C@@H](CO)O2)c(=O)n1 [Decitabine] (partner 2 µM)
# Procedure, shortened: as §1
# [3] = compound: Cn1cnc2c(F)c(Nc3ccc(Br)cc3Cl)c(C(=O)NOCCO)cc21 [Selumetinib] + Nc1ncn([C@H]2C[C@H](O)[C@@H](CO)O2)c(=O)n1 [Decitabine] (partner 2 µM)
# Procedure, shortened: as §1
# [4] = compound: CC1(C)CCC(CN2CCN(c3ccc(C(=O)NS(=O)(=O)c4ccc(NCC5CCOCC5)c([N+](=O)[O-])c4)c(Oc4cnc5[nH]ccc5c4)c3)CC2)=C(c2ccc(Cl)cc2)C1 [Venetoclax] + COc1cc2c(Oc3ccc(NC(=O)C4(C(=O)Nc5ccc(F)cc5)CC4)cc3F)ccnc2cc1OCCCN1CCOCC1 [Foretinib] (partner 0.25 µM)
# Procedure, shortened: as §1
Cell Line,relative viability ([1]; first compound 0.02 µM),relative viability ([1]; first compound 0.06325 µM),relative viability ([1]; first compound 0.2 µM),relative viability ([1]; first compound 0.6325 µM),relative viability ([2]; first compound 0.01 µM),relative viability ([2]; first compound 0.03162 µM),relative viability ([2]; first compound 0.1 µM),relative viability ([2]; first compound 0.3162 µM),relative viability ([2]; first compound 1 µM),relative viability ([3]; first compound 0.02 µM),relative viability ([3]; first compound 0.06325 µM),relative viability ([3]; first compound 0.2 µM),relative viability ([3]; first compound 0.6325 µM),relative viability ([4]; first compound 0.01 µM),relative viability ([4]; first compound 0.03162 µM),relative viability ([4]; first compound 0.1 µM),relative viability ([4]; first compound 0.3162 µM),relative viability ([4]; first compound 1 µM)
LCLC-97TM1,0.497,0.606,0.368,0.309,0.242,0.236,0.238,0.204,0.222,0.258,0.217,0.296,0.197,0.913,1.03,0.918,0.981,0.782
NCI-H1355,0.893,0.932,0.776,0.513,0.372,0.351,0.402,0.37,0.362,0.385,0.357,0.377,0.329,0.967,1.05,1.05,1.02,0.978
NCI-H596,0.906,0.845,0.677,0.415,1.16,0.998,0.923,0.914,0.935,0.927,0.936,0.922,0.83,0.77,0.877,1,0.956,0.743
A549,0.945,0.904,0.734,0.596,0.22,0.325,0.159,0.214,0.274,0.305,0.227,0.198,0.267,0.896,0.871,0.989,0.912,0.883
NCI-H1944,0.97,0.945,0.756,0.779,0.478,0.447,0.492,0.481,0.407,0.433,0.456,0.397,0.426,1.06,0.904,0.847,0.911,0.912
NCI-H2085,1.09,1.07,0.913,0.795,0.549,0.59,0.582,0.566,0.565,0.524,0.593,0.537,0.544,1.01,1.03,0.905,0.919,0.884
201T,1.17,1.14,1.17,1.15,0.774,0.834,0.792,0.82,0.825,0.795,0.817,0.786,0.824,1.2,1.04,0.976,0.98,1.06
NCI-H2405,0.771,0.636,0.525,0.37,0.763,0.683,0.74,0.717,0.633,0.733,0.751,0.736,0.615,1.03,1.08,1.01,0.999,1.04
LXF-289,0.913,0.894,0.754,0.754,0.35,0.37,0.385,0.387,0.4,0.356,0.418,0.36,0.437,1.05,0.975,0.991,0.941,0.913
LC-2-ad,0.4,0.359,0.442,0.46,0.858,0.778,0.785,0.78,0.765,0.73,0.817,0.781,0.776,1.04,0.95,0.938,0.947,0.904
NCI-H2126,0.789,0.764,0.75,0.59,0.579,0.616,0.601,0.56,0.548,0.559,0.513,0.564,0.56,1.17,1.21,0.784,1.09,1.06
COR-L23,1.05,0.926,1.06,1.04,0.458,0.478,0.444,0.454,0.39,0.438,0.418,0.451,0.444,0.884,1.03,1.04,0.866,0.883
BEN,0.0655,0.0564,0.0657,0.0674,0.747,0.721,0.737,0.653,0.673,0.704,0.733,0.714,0.731,0.728,0.743,0.561,0.681,0.518
ChaGo-K-1,0.878,0.956,0.911,1.23,0.465,0.503,0.488,0.545,0.519,0.544,0.539,0.48,0.532,1.02,0.944,0.889,0.916,0.949
LK-2,0.88,0.896,0.838,1.06,0.204,0.359,0.305,0.231,0.294,0.305,0.278,0.404,0.399,1.15,1.34,1.27,1.18,0.891
NCI-H460,1.18,0.916,0.86,0.578,0.442,0.525,0.493,0.498,0.447,0.432,0.484,0.402,0.326,0.978,0.941,0.791,0.997,0.951
NCI-H647,1.26,0.935,0.874,0.959,0.379,0.562,0.461,0.424,0.332,0.354,0.351,0.621,0.447,1.08,1.26,1.13,1.18,1.11
